The record followed here is patent publication US10800772B2 (Gilead Sciences, Inc., priority 2016, dated 2020).

The structures appear in SMILES notation. Read-outs that look alike come from different tables or passages of the source.

For orientation: EC50 means the midpoint of the concentration-response curve.

Common to all, as to assay type: cell-based, HIV-1
The test system of assay [1] is HIV-IIIb IN T174I BT. As to the kind of experiment: Antiviral assay in MT4 cells, HIV-IIIb IN T174I BT virus (from viral breakthrough). The conditions noted are these: Human immunodeficiency virus 1, IIIB, MT4, 120 h, read-out: T174I BT EC50, MT4 cells, HIV-IIIb IN T174I BT (viral breakthrough), 5 days, CellTiter-Glo. The procedure, abridged:
(§1)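 First, MT4 cells are infected with HIV-IIIb for 3 h at 37 °C (0.004 m.o.i.). Next, 2000 cells are added per well to 3-fold serial compound dilutions and cultured for 5 days. Finally, CellTiter-Glo chemiluminescence is read and EC50 is derived from the 50% signal decrease.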

The subject of assay [2] is HIV-IIIb (wildtype). As to the kind of experiment: Antiviral assay in MT4 cells, HIV-IIIb wildtype. Particulars: read-out: WT EC50. The procedure, abridged: as §1
Assay [3] relates to HIV-IIIb IN T174I DE. As to the kind of experiment: Antiviral assay in MT4 cells, HIV-IIIb IN T174I DE virus (from dose escalation passaging). Particulars: Human immunodeficiency virus 1, IIIB, MT4, 120 h, read-out: T174I DE EC50, MT4 cells, HIV-IIIb IN T174I DE (dose escalation), 5 days, CellTiter-Glo. The procedure, abridged: as §1
[4] abbreviates: Human immunodeficiency virus 1, IIIB, MT4, 120 h.
Setting [5] is: Human immunodeficiency virus 1, 120 h, MT4 cells, HIV-IIIb wildtype, 5 days, CellTiter-Glo.

For `Cc1cc2nc(-c3cnc4c(n3)c(C3CCN(C5COC5)CC3)cn4C)sc2c(-c2ccc(Cl)cc2)c1[C@H](OC(C)(C)C)C(=O)O` [Compound 16, (S)-2-(tert-butoxy)-2-(7-(4-chlorophenyl)-5-methyl-2-(5-methyl-7-(1-(oxetan-3-yl)piperidin-4-yl)-5H-pyrrolo[2,3-b]pyrazin-2-yl)benzo[d]thiazol-6-yl)acetic Acid], the EC50 in assay [1] was found to be 104 nM; in assay [2] (setting [4]) it was 2 nM; in assay [3], 603 nM.
Take `Cc1cc2nc(-c3ccc4c(c3)c(C3CCN(C5COC5)CC3)nn4C)sc2c(-c2ccc(Cl)cc2)c1[C@H](OC1CC1)C(=O)O` [Compound 22, (S)-2-(7-(4-chlorophenyl)-5-methyl-2-(1-methyl-3-(1-(oxetan-3-yl)piperidin-4-yl)-1H-indazol-5-yl)benzo[d]thiazol-6-yl)-2-cyclopropoxyacetic Acid]: the values for the EC50 in assay [1], in assay [2] (setting [5]) and in assay [3] were 48 nM, 23 nM and 108 nM, respectively.
For `Cc1cc2nc(-c3ccc4c(c3)c(C3CCN(C5CNC5)CC3)nn4C)sc2c(-c2ccc(Cl)cc2)c1[C@H](OC(C)(C)C)C(=O)O` [Compound 29, (S)-2-(2-(3-(1-(azetidin-3-yl)piperidin-4-yl)-1-methyl-1H-indazol-5-yl)-7-(4-chlorophenyl)-5-methylbenzo[d]thiazol-6-yl)-2-(tert-butoxy)acetic acid] the same measures were 646 nM, 52 nM and 823 nM.
As to `Cc1cc2nc(-c3ccc4c(c3)c(C3=CCOCC3)nn4C)sc2c(-c2ccc(Cl)cc2)c1[C@H](OC(C)(C)C)C(=O)O` [Compound 18, (S)-2-(tert-butoxy)-2-(7-(4-chlorophenyl)-2-(3-(3,6-dihydro-2H-pyran-4-yl)-1-methyl-1H-indazol-5-yl)-5-methylbenzo[d]thiazol-6-yl)acetic Acid], the EC50 came out at 2150 nM in assay [1], 14 nM in assay [2] (setting [4]) and 4500 nM in assay [3].
For the compound `CC(=O)N1CC[C@@H]1CN1CCC(c2nn(C)c3ccc(-c4nc5cc(C)c([C@H](OC(C)(C)C)C(=O)O)c(-c6ccc(Cl)cc6)c5s4)cc23)CC1` [Compound 148, (S)-2-(2-(3-(1-(((R)-1-acetyl-azetidin-2-yl)methyl)piperidin-4-yl)-1-methyl-1H-indazol-5-yl)-7-(4-chloro-phenyl)-5-methylbenzo[d]thiazol-6-yl)-2-(tert-butoxy) acetic acid], the EC50 in assay [1] was 143 nM; in assay [2] (setting [4]), 12 nM; in assay [3] it was 199 nM.
For `Cc1cc2nc(-c3ccc4c(c3)c(C3CCN(C[C@@H]5CCN5C)CC3)nn4C)sc2c(-c2ccc(Cl)cc2)c1[C@H](OC(C)(C)C)C(=O)O` [Compound 149, (S)-2-(tert-butoxy)-2-(7-(4-chloro-phenyl)-5-methyl-2-(1-methyl-3-(1-(((S)-1-methyl-azetidin-2-yl)methyl)piperidin-4-yl)-1H-indazol-5-yl)benzo[d]thiazol-6-yl) acetic acid] the same measures were 80 nM, 11 nM and 98 nM.
`COCCN1CC[C@H](c2nn(C)c3ccc(-c4nc5cc(C)c([C@H](OC(C)(C)C)C(=O)O)c(-c6ccc(Cl)cc6)c5s4)cc23)C1` (single isomer, unassigned) [Compound 68]: the values for the EC50 in assay [1], in assay [2] (setting [4]) and in assay [3] were 1160 nM, 5 nM and 1600 nM, respectively.
For `Cc1cc2nc(-c3ccc4c(c3)c(C3CCN(C5CCC5)C3)nn4C)sc2c(-c2ccc(Cl)cc2)c1[C@H](OC(C)(C)C)C(=O)O` (stereo partly drawn) [Compound 71, (2S)-2-(tert-butoxy)-2-(7-(4-chlorophenyl)-2-(3-(1-cyclobutylpyrrolidine-3-yl)-1-methyl-1H-indazol-5-yl)-5-methylbenzo[d]thiazol-6-yl)acetic acid] the same measures were 2470 nM, 5 nM and 2240 nM.
Turning to `CN[C@H]1CCN(c2nn(C)c3ccc(-c4nc5cc(C)c([C@H](OC(C)(C)C)C(=O)O)c(-c6ccc(Cl)cc6)c5s4)cc23)C1` [Compound 94, (S)-2-(tert-butoxy)-2-(7-(4-chlorophenyl)-5-methyl-2-(1-methyl-3-((S)-3-(methylamino)pyrrolidin-1-yl)-1H-indazol-5-yl)benzo[d]thiazol-6-yl)acetic acid], the EC50 turned out to be 2720 nM in assay [1], 38 nM in assay [2] (setting [4]) and 2520 nM in assay [3].
For `COC(=O)N1CCC(c2nn(C)c3ccc(-c4nc5cc(C)c([C@H](OC(C)(C)C)C(=O)O)c(-c6ccc(Cl)cc6)c5s4)cc23)C1` (stereo partly drawn) [Compound 72, (2S)-2-(tert-butoxy)-2-(7-(4-chlorophenyl)-2-(3-(1-(methoxycarbonyl)pyrrolidin-3-yl)-1-methyl-1H-indazol-5-yl)-5-methylbenzo[d]thiazol-6-yl)acetic acid] the same measures were 553 nM, 7 nM and 1030 nM.
For the compound `COC(=O)N1CC[C@@H](N2CCC(c3nn(C)c4ccc(-c5nc6cc(C)c([C@H](OC(C)(C)C)C(=O)O)c(-c7ccc(Cl)cc7)c6s5)nc34)CC2)C1` [Compound 208, (S)-2-(tert-butoxy)-2-(7-(4-chloro-phenyl)-2-(3-(1-((R)-1-(methoxy-carbonyl)pyrrolidin-3-yl)piperidin-4-yl)-1-methyl-1H-pyrazolo[4,3-b]pyridin-5-yl)-5-methylbenzo[d]thiazol-6-yl) acetic acid], the EC50 was determined as 54 nM in assay [1], 2 nM in assay [2] (setting [4]) and 206 nM in assay [3].
Consider `COC(=O)N1CC[C@H](N2CCC(c3nn(C)c4ccc(-c5nc6cc(C)c([C@H](OC(C)(C)C)C(=O)O)c(-c7ccc(Cl)cc7)c6s5)cc34)CC2)C1` [Compound 162, (S)-2-(tert-butoxy)-2-(7-(4-chloro-phenyl)-2-(3-(1-((S)-1-(methoxy-carbonyl)pyrrolidin-3-yl)piperidin-4-yl)-1-methyl-1H-indazol-5-yl)-5-methylbenzo[d]thiazol-6-yl) acetic acid], for which the EC50 was 149 nM in assay [1], 5 nM in assay [2] (setting [4]) and 272 nM in assay [3].
For `Cc1cc2nc(-c3ccc4c(c3)c(C3CCN(C)C3)nn4C)sc2c(-c2ccc(Cl)cc2)c1[C@H](OC(C)(C)C)C(=O)O` (stereo partly drawn) [Compound 63, (2S)-2-(tert-butoxy)-2-(7-(4-chlorophenyl)-5-methyl-2-(1-methyl-3-(1-methylpyrrolidin-3-yl)-1H-indazol-5-yl)benzo[d]thiazol-6-yl)acetic acid] the same measures were 2800 nM, 10 nM and 13200 nM.
On the same counts, the results for `CC(=O)N1CC(N2CCC(c3cn(C)c4ncc(-c5nc6cc(C)c([C@H](OC(C)(C)C)C(=O)O)c(-c7ccc(Cl)cc7)c6s5)cc34)CC2)C1` [Compound 204, (S)-2-(2-(3-(1-(1-acetylazetidin-3-yl)piperidin-4-yl)-1-methyl-1H-pyrrolo[2,3-b]pyridin-5-yl)-7-(4-chlorophenyl)-5-methylbenzo [d]thiazol-6-yl)-2-(tert-butoxy) acetic acid] are 255 nM, 15 nM and 636 nM.
For `Cc1cc2nc(-c3ccc4c(c3)c(N3CC(N(C)C)C3)nn4C)sc2c(-c2ccc(Cl)cc2)c1[C@H](OC(C)(C)C)C(=O)O` [Compound 90, (S)-2-(tert-butoxy)-2-(7-(4-chlorophenyl)-2-(3-(3-(dimethylamino)azetidin-1-yl)-1-methyl-1H-indazol-5-yl)-5-methylbenzo[d]thiazol-6-yl)acetic Acid], the EC50 in assay [1] was 1180 nM; in assay [2] (setting [4]), 8 nM; in assay [3] it was 1350 nM.
For `[2H]C([2H])([2H])n1nc(C2CCN(C3COC3)CC2)c2nc(-c3nc4cc(C)c([C@H](OC(C)(C)C)C(=O)O)c(-c5ccc(Cl)cc5)c4s3)ccc21` [Compound 176, (S)-2-(tert-butoxy)-2-(7-(4-chloro-phenyl)-5-methyl-2-(1-(methyl-d3)-3-(1-(oxetan-3-yl)piperidin-4-yl)-1H-pyrazolo[4,3-b]pyridin-5-yl)benzo[d]thiazol-6-yl)acetic acid] the same measures were 85 nM, 3 nM and 214 nM.
For `Cc1cc2nc(-c3ccc4c(c3)c(N3CCC(N5CCC5)CC3)nn4C)sc2c(-c2ccc(Cl)cc2)c1[C@H](OC(C)(C)C)C(=O)O` [Compound 136, (S)-2-(2-(3-(4-(azetidin-1-yl)piperidin-1-yl)-1-methyl-1H-indazol-5-yl)-7-(4-chlorophenyl)-5-methylbenzo[d]thiazol-6-yl)-2-(tert-butoxy) acetic acid] the same measures were 857 nM, 14 nM and 1700 nM.
Regarding `Cc1cc2nc(-c3ccc4c(c3)c(C3CCN(CC5CCO5)CC3)nn4C)sc2c(-c2ccc(Cl)cc2)c1[C@H](OC(C)(C)C)C(=O)O` (stereo partly drawn) [Compound 6, (2S)-2-(tert-butoxy)-2-(7-(4-chlorophenyl)-5-methyl-2-(1-methyl-3-(1-(oxetan-2-ylmethyl)piperidin-4-yl)-1H-indazol-5-yl)benzo[d]thiazol-6-yl)acetic Acid], the EC50 was found to be 283 nM in assay [1], 4 nM in assay [2] (setting [4]) and 577 nM in assay [3].
